Data taken from patent US11116778B2, “Prodrugs of ALOX-15 inhibitors and methods of using the same” (EMPIRICO INC., priority 2019, dated 2021).

Legend:
POSTN mRNA [1] = experiment: POSTN mRNA by RT-qPCR in rabbit nasal mucosa; format: in vivo; conditions: rostral and caudal regions; rabbits, compound 5 10 mM intranasal
Procedure: Six (6) female NZW rabbits were employed in this study. Rabbits were obtained from Covance (Denver Pa.). Rabbits were between approximately 10 and 12 months of age at the time of study start. At time point 0, all animals received 50 μL of solution containing rabbit IL4 (RND Systems/Biotechne) and human IL13 (PreproTech) at a concentration of 0.25 mg/mL each in 0.5×PBS containing 12.5 mg/mL BSA per nostril. This was administered intranasally via a venous catheter attached to a micropipette. The animal was positioned in a supine manner and the venous catheter inserted into the nostril. The volume was introduced into the nasal cavity and the same procedure was repeated with the other nostril. […]
Relative ALOX15 and POSTN mRNA levels in nasal mucosa were measured by RT-qPCR. […] The level of ALOX15 or POSTN mRNA from each sample was measured in triplicate by real-time qPCR on an Applied Biosystems 7500 Fast Real-Time PCR machine using the TaqMan Gene Expression Assay for rabbit ALOX15 (ThermoFisher, assay #Oc03823548_s1). The level of GAPDH mRNA was measured in biplex reactions using TaqMan Gene Expression Assay (ThermoFisher, assay #Oc03823402_g1) and used to determine relative ALOX15 mRNA levels in each well using the delta-delta Ct method. […] Relative POSTN mRNA levels were measured as above using TaqMan Gene Expression Assay specific for rabbit POSTN mRNA (ThermoFisher, assay #Oc06804808_s1). […]

POSTN mRNA [2] = experiment: POSTN mRNA by RT-qPCR in human nasal epithelial primary cells; format: cell-based; conditions: 5 μM or 1 μM, 3 x 24 hours with 20 ng/mL IL-13
Procedure: Human nasal epithelial primary cells (HNEpC) (PromoCell GmbH, Heidelberg, Germany) were cultured according to the manufacturer in provided Primary Cell media in 24 well plates at a density of 25,000 cells per well. Cells were treated with 5 μM or 1 μM of compound 5 or vehicle only (water) in media containing 20 ng/mL IL-13 for 24 hours in a 37° C. cell culture incubator. The following day, media was replaced and fresh media containing 20 ng/mL IL-13 and compound 5 or vehicle was added to each well, then incubated again for 24 hours in a 37° C. cell culture incubator. The process was repeated once more for a 24-hour period.
ALOX15 and POSTN mRNA levels were measured by RT-qPCR. […] The level of ALOX15 mRNA from each sample was measured in triplicate by real-time qPCR on an Applied Biosystems 7500 Fast Real-Time PCR machine using the TaqMan Gene Expression Assay for human ALOX15 (ThermoFisher, assay #Hs00993765_g1). The level of PPIA mRNA was measured in biplex reactions using TaqMan Gene Expression Assay (ThermoFisher, assay #Hs99999904_ml) and used to determine relative ALOX15 mRNA levels in each well using the delta-delta Ct method. […] Relative POSTN mRNA levels were measured as above using TaqMan Gene Expression Assay specific for human POSTN mRNA (ThermoFisher, assay #Hs00170815_m1). […]

Q: Which “relative level of POSTN mRNA in nasal mucosa versus vehicle (FIG. 11)” value (POSTN mRNA [1]) does the source give for `O=C(Nc1ccc(F)cc1Cl)c1nn(COP(=O)(O)O)c(Cl)c1Cl` [compound 5, (4,5-dichloro-3-((2-chloro-4-fluorophenyl)carbamoyl)-1H-pyrazol-1-yl)methyl dihydrogen phosphate] here?
A: lower

Q: What about the “relative level of POSTN mRNA versus vehicle (FIG. 7)” value (POSTN mRNA [2]) of the same molecule?
A: lower
